Laboratory results as given in patent US20090311217A1, “3-SUBSTITUTED-1H-INDOLE COMPOUNDS, THEIR USE AS MTOR KINASE AND PI3 KINASE INHIBITORS, AND THEIR SYNTHESES” (priority 2008, published 2009).
Read-outs that look alike come from different tables or passages of the source.

Columns and labels:
PI3K-gamma = PI3K-gamma (Homo sapiens, UniProt P48736); test: PI3K-gamma fluorescence polarization assay; format: biochemical; conditions: PI3Kγ Avg. IC50
How it was run: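 Reactions used 5 ng enzyme with 2.5 μM diC8-PI(4,5)P2 and 25 μM ATP in 5 mM HEPES pH 7, 2.5 mM MgCl2, run 1 h at 25° C. After an EDTA quench (10 mM), 100 nM GST-GRP1 PH domain and 5 nM BODIPY-TMR-IP4 were added and fluorescence polarization was read.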

PI3K-alpha = PI3K-alpha (Homo sapiens, UniProt P42336); test: PI3K-alpha fluorescence polarization assay; format: biochemical
Sequence of PI3K-alpha (P42336 whole entry, species assumed): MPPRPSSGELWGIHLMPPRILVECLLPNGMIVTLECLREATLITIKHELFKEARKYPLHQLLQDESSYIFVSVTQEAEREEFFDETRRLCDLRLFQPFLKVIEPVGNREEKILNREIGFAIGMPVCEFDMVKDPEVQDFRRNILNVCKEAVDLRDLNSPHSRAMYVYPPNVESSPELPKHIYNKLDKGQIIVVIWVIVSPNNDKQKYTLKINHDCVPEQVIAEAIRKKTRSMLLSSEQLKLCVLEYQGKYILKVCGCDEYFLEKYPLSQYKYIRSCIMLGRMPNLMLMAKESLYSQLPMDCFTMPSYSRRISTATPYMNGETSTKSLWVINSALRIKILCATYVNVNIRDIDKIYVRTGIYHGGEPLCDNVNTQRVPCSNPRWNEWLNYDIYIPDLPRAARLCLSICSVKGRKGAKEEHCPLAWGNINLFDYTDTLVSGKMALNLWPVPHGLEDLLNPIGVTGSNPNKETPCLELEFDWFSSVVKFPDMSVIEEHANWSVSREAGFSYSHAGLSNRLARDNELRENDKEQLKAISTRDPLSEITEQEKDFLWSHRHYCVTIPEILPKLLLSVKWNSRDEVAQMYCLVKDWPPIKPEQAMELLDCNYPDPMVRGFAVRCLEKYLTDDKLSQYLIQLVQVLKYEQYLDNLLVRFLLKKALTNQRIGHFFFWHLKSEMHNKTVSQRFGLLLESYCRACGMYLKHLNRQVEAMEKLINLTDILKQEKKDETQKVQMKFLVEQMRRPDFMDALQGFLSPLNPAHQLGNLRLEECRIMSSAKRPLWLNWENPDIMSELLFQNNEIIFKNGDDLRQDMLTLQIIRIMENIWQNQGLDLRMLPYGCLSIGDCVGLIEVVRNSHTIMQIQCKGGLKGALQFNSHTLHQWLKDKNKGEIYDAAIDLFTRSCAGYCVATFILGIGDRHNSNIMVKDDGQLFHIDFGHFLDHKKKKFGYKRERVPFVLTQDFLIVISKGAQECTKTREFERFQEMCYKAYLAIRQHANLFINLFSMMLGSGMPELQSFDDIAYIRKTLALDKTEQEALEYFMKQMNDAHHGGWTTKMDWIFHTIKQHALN
Sequence of PI3K-alpha (P27986 whole entry partner, species assumed): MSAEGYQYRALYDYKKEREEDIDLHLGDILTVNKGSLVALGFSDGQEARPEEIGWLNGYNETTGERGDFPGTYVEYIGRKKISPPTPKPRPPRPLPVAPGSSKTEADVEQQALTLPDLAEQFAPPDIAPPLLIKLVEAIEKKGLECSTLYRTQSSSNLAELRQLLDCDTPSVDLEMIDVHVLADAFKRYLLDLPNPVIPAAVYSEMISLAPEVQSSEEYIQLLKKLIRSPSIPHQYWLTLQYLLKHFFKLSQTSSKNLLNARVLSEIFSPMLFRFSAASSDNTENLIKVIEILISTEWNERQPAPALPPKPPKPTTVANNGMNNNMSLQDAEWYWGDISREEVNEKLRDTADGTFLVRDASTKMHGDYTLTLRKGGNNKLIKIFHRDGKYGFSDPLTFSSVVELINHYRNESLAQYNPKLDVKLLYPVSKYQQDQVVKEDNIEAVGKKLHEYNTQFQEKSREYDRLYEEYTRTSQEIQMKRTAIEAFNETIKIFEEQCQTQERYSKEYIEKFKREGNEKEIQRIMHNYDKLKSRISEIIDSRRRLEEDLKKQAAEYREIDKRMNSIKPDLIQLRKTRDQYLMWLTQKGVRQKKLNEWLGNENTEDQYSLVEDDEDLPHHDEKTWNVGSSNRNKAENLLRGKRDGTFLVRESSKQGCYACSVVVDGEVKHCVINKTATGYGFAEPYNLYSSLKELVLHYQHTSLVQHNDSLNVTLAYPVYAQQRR

Sequence of PI3K-gamma (P48736 whole entry, species assumed, the tested form may be a part): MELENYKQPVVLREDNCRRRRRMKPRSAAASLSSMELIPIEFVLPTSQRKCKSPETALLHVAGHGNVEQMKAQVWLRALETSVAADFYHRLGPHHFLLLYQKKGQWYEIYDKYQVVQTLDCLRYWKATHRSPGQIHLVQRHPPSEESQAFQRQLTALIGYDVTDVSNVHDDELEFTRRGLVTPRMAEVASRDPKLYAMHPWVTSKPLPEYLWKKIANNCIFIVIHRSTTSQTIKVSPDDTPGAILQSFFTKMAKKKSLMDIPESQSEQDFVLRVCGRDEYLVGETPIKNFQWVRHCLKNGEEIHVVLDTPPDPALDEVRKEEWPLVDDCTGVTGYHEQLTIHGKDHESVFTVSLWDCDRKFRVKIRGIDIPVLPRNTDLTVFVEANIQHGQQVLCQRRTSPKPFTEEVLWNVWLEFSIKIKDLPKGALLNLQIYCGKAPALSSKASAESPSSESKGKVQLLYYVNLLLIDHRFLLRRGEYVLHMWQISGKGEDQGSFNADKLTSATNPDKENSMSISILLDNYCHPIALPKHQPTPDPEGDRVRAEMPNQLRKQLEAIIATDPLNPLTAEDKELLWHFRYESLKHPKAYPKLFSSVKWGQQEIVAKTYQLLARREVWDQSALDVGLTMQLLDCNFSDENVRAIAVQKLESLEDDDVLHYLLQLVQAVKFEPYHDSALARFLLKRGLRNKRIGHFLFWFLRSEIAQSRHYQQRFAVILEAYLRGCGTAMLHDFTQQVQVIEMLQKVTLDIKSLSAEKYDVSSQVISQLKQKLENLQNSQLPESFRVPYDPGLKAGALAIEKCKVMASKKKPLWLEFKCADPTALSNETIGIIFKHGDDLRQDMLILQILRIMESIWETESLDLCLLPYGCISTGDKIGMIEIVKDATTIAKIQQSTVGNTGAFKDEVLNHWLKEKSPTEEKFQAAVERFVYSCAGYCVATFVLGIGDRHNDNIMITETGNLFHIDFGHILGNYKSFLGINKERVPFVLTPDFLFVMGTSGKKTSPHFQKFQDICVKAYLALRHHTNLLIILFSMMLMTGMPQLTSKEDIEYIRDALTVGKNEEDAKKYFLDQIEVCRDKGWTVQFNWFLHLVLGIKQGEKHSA

| Structure (SMILES) | IC50 (PI3K-gamma) | IC50 (PI3K-alpha; read-out: PI3Kα Avg. IC50) | IC50 (PI3K-alpha; PI3Kα Avg. IC50) |
| --- | --- | --- | --- |
| CNC(=O)Nc1ccc2c(c1)C(=O)/C(=C/c1c(C)n(CCCN3CCCC3)c3ccc(OC)cc13)O2 [Compound 597, 1-[(2Z)-2-{[5-methoxy-2-methyl-1-(3-pyrrolidin-1-ylpropyl)-1H-indol-3-yl]methylidene}-3-oxo-2,3-dihydro-1-benzofuran-5-yl]-3-methylurea] | 448 nM | 3.5 nM |  |
| CNC(=O)Nc1ccc2c(c1)C(=O)/C(=C/c1c(C)n(CCCn3ccnc3)c3ccc(OC)cc13)O2 [Compound 598, 1-[(2Z)-2-({1-[3-(1H-imidazol-1-yl)propyl]-5-methoxy-2-methyl-1H-indol-3-yl}methylidene)-3-oxo-2,3-dihydro-1-benzofuran-5-yl]-3-methylurea] | 417 nM | 30.8 nM |  |
| CNC(=O)Nc1ccc2c(c1)C(=O)/C(=C/c1c(C)n(CCCN3CCN(CCO)CC3)c3ccc(OC)cc13)O2 [Compound 599, 1-{(2Z)-2-[(1-{3-[4-(2-hydroxyethyl)piperazin-1-yl]propyl}-5-methoxy-2-methyl-1H-indol-3-yl)methylidene]-3-oxo-2,3-dihydro-1-benzofuran-5-yl}-3-methylurea] | 950 nM | 10 nM |  |
| CNC(=O)Nc1ccc2c(c1)C(=O)/C(=C/c1c(C#N)[nH]c3ccc(OC)cc13)O2 [Compound 604, 1-{(2Z)-2-[(2-cyano-5-methoxy-1H-indol-3-yl)methylidene]-3-oxo-2,3-dihydro-1-benzofuran-5-yl}-3-methylurea] | > 10000 nM | 10.5 nM |  |
| CNC(=O)Nc1ccc2c(c1)C(=O)/C(=C/c1c(C3=CCNCC3)[nH]c3ccc(OC)cc13)O2 [Compound 606, 1-[(2Z)-2-{[5-methoxy-2-(1,2,3,6-tetrahydropyridin-4-yl)-1H-indol-3-yl]methylidene}-3-oxo-2,3-dihydro-1-benzofuran-5-yl]-3-methylurea] | 113 nM | 8 nM |  |
| CNC(=O)Nc1ccc2c(c1)C(=O)/C(=C/c1c(C3=CCNCC3)n(CCN3CCN(C)CC3)c3ccc(OC)cc13)O2 [Compound 607, 1-[(2Z)-2-({5-methoxy-1-[2-(4-methylpiperazin-1-yl)ethyl]-2-(1,2,3,6-tetrahydropyridin-4-yl)-1H-indol-3-yl}methylidene)-3-oxo-2,3-dihydro-1-benzofuran-5-yl]-3-methylurea] | 4220 nM | 4.5 nM |  |
| CNC(=O)Nc1ccc2c(c1)C(=O)/C(=C/c1c(C)n(CCN3CCCCC3)c3ccc(OC)cc13)O2 [Compound 609, 1-[(2Z)-2-{[5-methoxy-2-methyl-1-(2-piperidin-1-ylethyl)-1H-indol-3-yl]methylidene}-3-oxo-2,3-dihydro-1-benzofuran-5-yl]-3-methylurea] | 446 nM | 15 nM |  |
| CNC(=O)Nc1ccc2c(c1)C(=O)/C(=C/c1c(C)n(CCN3CCCC3)c3ccc(OC)cc13)O2 [Compound 611, 1-[(2Z)-2-{[5-methoxy-2-methyl-1-(2-pyrrolidin-1-ylethyl)-1H-indol-3-yl]methylidene}-3-oxo-2,3-dihydro-1-benzofuran-5-yl]-3-methylurea] | 712 nM | 19.5 nM |  |
| Cc1[nH]c2ccc(Br)cc2c1/C=C1\Oc2c(ccc(O)c2O)C1=O [Example 66, (2Z)-2-[(5-bromo-2-methyl-1H-indol-3-yl)methylene]-6,7-dihydroxy-1-benzofuran-3(2H)-one] | 2910 nM | 232 nM |  |
| O=C1/C(=C/c2c(-c3ccc(F)cc3)[nH]c3ccccc23)Oc2c(O)cccc21 [Example 68, (2Z)-2-{[2-(4-fluorophenyl)-1H-indol-3-yl]methylene}-7-hydroxy-1-benzofuran-3(2H)-one] | 486 nM |  | 481 nM |
| COc1ccc2[nH]c(-c3ccccc3)c(C=C3Oc4c(ccc(O)c4O)C3=O)c2c1 [Example 71, 6,7-dihydroxy-2-[(5-methoxy-2-phenyl-1H-indol-3-yl)methylene]-1-benzofuran-3(2H)-one] | 439 nM | 74.2 nM |  |
| COc1ccc2[nH]cc(CC3Oc4cc(O)cc(O)c4C3=O)c2c1 (centres unmarked) [Example 117, 4,6-dihydroxy-2-[(5-methoxy-1H-indol-3-yl)methyl]-1-benzofuran-3(2H)-one] | 8600 nM | 1840 nM |  |
| COc1ccc2[nH]c(-c3ccccc3)c(CC3Oc4cc(O)cc(O)c4C3=O)c2c1 (centres unmarked) [Example 118, 4,6-dihydroxy-2-[(5-methoxy-2-phenyl-1H-indol-3-yl)methyl]-1-benzofuran-3(2H)-one] | 932 nM | 288 nM |  |
| COc1ccc2[nH]c(C)c(CC3Oc4cc(O)cc(O)c4C3=O)c2c1 (centres unmarked) [Example 119, 4,6-dihydroxy-2-[(5-methoxy-2-methyl-1H-indol-3-yl)methyl]-1-benzofuran-3(2H)-one] | > 10000 nM | 3830 nM |  |
| COc1ccc2[nH]c(C)c(C=C3Oc4c(O)cccc4C3=O)c2c1 [Example 120, 7-hydroxy-2-[(5-methoxy-2-methyl-1H-indol-3-yl)methylene]-1-benzofuran-3(2H)-one] | 10300 nM | 1540 nM |  |

Now from value to compound:

| IC50 (PI3K-gamma) | IC50 (PI3K-alpha; read-out: PI3Kα Avg. IC50) | IC50 (PI3K-alpha; PI3Kα Avg. IC50) | Structure (SMILES) |
| --- | --- | --- | --- |
| 128 nM | 24 nM |  | CNC(=O)Nc1ccc2c(c1)C(=O)/C(=C/c1c(C(=O)N(C)C)[nH]c3ccc(OC)cc13)O2 [Compound 600, 5-methoxy-N,N-dimethyl-3-[(Z)-{5-[(methylcarbamoyl)amino]-3-oxo-1-benzofuran-2(3H)-ylidene}methyl]-1H-indole-2-carboxamide] |
| 77 nM | 8 nM |  | CNC(=O)Nc1ccc2c(c1)C(=O)/C(=C/c1c(C(=O)N3CCN(C)CC3)[nH]c3ccc(OC)cc13)O2 [Compound 601, 1-[(2Z)-2-({5-methoxy-2-[(4-methylpiperazin-1-yl)carbonyl]-1H-indol-3-yl}methylidene)-3-oxo-2,3-dihydro-1-benzofuran-5-yl]-3-methylurea] |
| 316 nM | 40.5 nM |  | CNC(=O)Nc1ccc2c(c1)C(=O)/C(=C/c1c(C(=O)N(C)CCN(C)C)[nH]c3ccc(OC)cc13)O2 [Compound 602, N-[2-(dimethylamino)ethyl]-5-methoxy-N-methyl-3-[(Z)-{5-[(methylcarbamoyl)amino]-3-oxo-1-benzofuran-2(3H)-ylidene}methyl]-1H-indole-2-carboxamide] |
| 102 nM | 6.5 nM |  | CNC(=O)Nc1ccc2c(c1)C(=O)/C(=C/c1c(C(=O)NC)[nH]c3ccc(OC)cc13)O2 [Compound 603, 5-methoxy-N-methyl-3-[(Z)-{5-[(methylcarbamoyl)amino]-3-oxo-1-benzofuran-2(3H)-ylidene}methyl]-1H-indole-2-carboxamide] |
| 315 nM | 19 nM |  | CNC(=O)Nc1ccc2c(c1)C(=O)/C(=C/c1c(C(=O)NCCN(C)C)[nH]c3ccc(OC)cc13)O2 [Compound 605, N-[2-(dimethylamino)ethyl]-5-methoxy-3-[(Z)-{5-[(methylcarbamoyl)amino]-3-oxo-1-benzofuran-2(3H)-ylidene}methyl]-1H-indole-2-carboxamide] |
| 136 nM | 15.5 nM |  | CNC(=O)Nc1ccc2c(c1)C(=O)/C(=C/c1c(C)n(CCN3CCOCC3)c3ccc(OC)cc13)O2 [Compound 608, 1-[(2Z)-2-{[5-methoxy-2-methyl-1-(2-morpholin-4-ylethyl)-1H-indol-3-yl]methylidene}-3-oxo-2,3-dihydro-1-benzofuran-5-yl]-3-methylurea] |
| 106 nM | 11.5 nM |  | CNC(=O)Nc1ccc2c(c1)C(=O)/C(=C/c1c(C)n(CCN(C)C)c3ccc(OC)cc13)O2 [Compound 610, 1-[(2Z)-2-({1-[2-(dimethylamino)ethyl]-5-methoxy-2-methyl-1H-indol-3-yl}methylidene)-3-oxo-2,3-dihydro-1-benzofuran-5-yl]-3-methylurea] |
| 121 nM | 15.5 nM |  | CNC(=O)Nc1ccc2c(c1)C(=O)/C(=C/c1c(CN(C)C)[nH]c3ccc(OC)cc13)O2 [Compound 612, 1-[(2Z)-2-({2-[(dimethylamino)methyl]-5-methoxy-1H-indol-3-yl}methylidene)-3-oxo-2,3-dihydro-1-benzofuran-5-yl]-3-methylurea] |
| 154 nM | 12.5 nM |  | CNC(=O)Nc1ccc2c(c1)C(=O)/C(=C/c1c(CN(C)CCN(C)C)[nH]c3ccc(OC)cc13)O2 [Compound 613, 1-[(2Z)-2-{[2-({[2-(dimethylamino)ethyl](methyl)amino}methyl)-5-methoxy-1Hindol-3-yl]methylidene}-3-oxo-2,3-dihydro-1-benzofuran-5-yl]-3-methylurea] |
| 355 nM | 3.5 nM |  | CNC(=O)Nc1ccc2c(c1)C(=O)/C(=C/c1c(-c3nc(C(C)C)no3)n(CCN3CCN(C)CC3)c3ccc(OC)cc13)O2 [Compound 614, 1-[(2Z)-2-({5-methoxy-2-[3-(1-methylethyl)-1,2,4-oxadiazol-5-yl]-1-[2-(4-methylpiperazin-1-yl)ethyl]-1H-indol-3-yl}methylidene)-3-oxo-2,3-dihydro-1-benzofuran-5-yl]-3-methylurea] |
| 136 nM | 9.5 nM |  | CNC(=O)Nc1ccc2c(c1)C(=O)/C(=C/c1c(CN3CCN(C)CC3)[nH]c3ccc(OC)cc13)O2 [Compound 615, 1-[(2Z)-2-({5-methoxy-2-[(4-methylpiperazin-1-yl)methyl]-1H-indol-3-yl}methylidene)-3-oxo-2,3-dihydro-1-benzofuran-5-yl]-3-methylurea] |
| 4.8 nM | 0.4 nM |  | CNC(=O)Nc1ccc2c(c1)C(=O)/C(=C/c1c(-c3c(C)nn(C)c3C)[nH]c3ccc(OC)cc13)O2 [Compound 616, 1-[(2Z)-2-{[5-methoxy-2-(1,3,5-trimethyl-1H-pyrazol-4-yl)-1H-indol-3-yl]methylidene}-3-oxo-2,3-dihydro-1-benzofuran-5-yl]-3-methylurea] |
| 69.5 nM | 11.5 nM |  | CCn1c(C)c(/C=C2\Oc3ccc(NC(=O)Nc4ccc(N(C)C)cc4)cc3C2=O)c2cc(OC)ccc21 [Compound 681, 1-[4-(dimethylamino)phenyl]-3-{(2Z)-2-[(1-ethyl-5-methoxy-2-methyl-1H-indol-3-yl)methylidene]-3-oxo-2,3-dihydro-1-benzofuran-5-yl}urea] |
